This assay has as its system spared nerve injury (SNI) model, mechanical allodynia. Kind of assay: Von Frey test of mechanical allodynia in the spared nerve injury (SNI) model. It counts as in vivo, Sprague-Dawley rats. The settings on record: SNI rats, 20 mg/kg i.p. daily, Von Frey monofilaments, naive and sham 15 g. The source says: For this purpose, the inventors have chosen the animal model designed by Decosterd and Woolf (Pain, 2000), which developed a partial denervation model, technically easy to perform and subject to minimal variability in the degree of damage produced. Most important was that this is a model that will enable a direct measurement of changes in both injured primary sensory neurons and in neighbouring intact sensory neurons so that their relative contribution to the pathophysiology of pain could be investigated. […] All procedures were performed on adult (200-250 g) male Sprague-Dawley rats. Under halothane (2%) anesthesia, the skin on the lateral surface of the thigh was incised and a section made directly through the biceps femoris muscle exposing the sciatic nerve and its three terminal branches: the sural, the common peroneal and the tibial nerves. The spared nerve injury procedure comprised an axotomy and ligation of the tibial and common peroneal nerves leaving the sural nerve intact. The common peroneal and the tibial nerves were tight-ligated with 5.0 silk and sectioned distal to the ligation, removing 2±4 mm of the distal nerve stump. Great care was taken to avoid any contact with or stretching of the intact sural nerve. Muscle and skin were closed in two layers. Sham controls involved exposure of the sciatic nerve and its branches without any lesion. The Von Frey test is a mechanical sensitivity assay that consists of thin calibrated plastic filaments, called Von Frey hairs, which are applied to the plantar surface of the hindpaw of the tested animal. The filaments present different degrees of stiffness that are used to determine the one that evokes a hindpaw withdrawal. Each filament, starting with the less stiff, is applied to the plantar surface of both hindpaws of each rat. The process is repeated with Von Frey hairs of increasing stiffness until one evokes a reflexive and sustained hindpaw withdrawal. This is defined as the withdrawal threshold, is measured in grams and is an indicator of mechanical allodynia. In the present example the animals were divided in 6 (six) groups (n=7 per group): naive control (negative control), sham control, SNI plus water (positive control), SNI plus (rac)-pirlindole 20 mg/kg, SNI plus (S)-pirlindole 20 mg/kg, SNI plus (R)-pirlindole 20 mg/kg and. After the application of surgical procedure to the groups of sham control, SNI plus water (positive control), SNI plus (rac)-pirlindole, SNI plus (S)-pirlindole and SNI plus (R)-pirlindole, the animals were confined during a 7 weeks (7 wk) period aiming the full induction of mechanical allodynia. Following a 3 week (3 wk), treatment period was started and water or one of the test items (rac-pirlindole, S-pirlindole and R-pirlindole) were administered by intraperitoneal (ip) route, on a daily basis. At the 2nd and 3rd week of treatment the mechanical allodynia was tested. The animals were placed on an elevated wire grid and the plantar surface of the paw stimulated with a series of ascending force Von Frey monofilaments. The threshold was taken as the lowest force that evoked a brisk withdrawal response to one of the repetitive stimuli (Tal and Bennett, 1994). The lateral and medial plantar surfaces of the paw as well as its dorsal surface were tested.

[1] abbreviates: wk2 of treatment, SNI plus water 0.41 g.
The mark [2] stands for this setting: wk3 of treatment, SNI plus water 0.14 g.

In the case of `Cc1ccc2c(c1)c1c3n2CCNC3CCC1` (racemic) [(rac)-pirlindole, 2,3,3a,4,5,6-hexahydro-8 methyl-1H-pyrazino [3,2,1-j, k] carbazole], the “mean lowest force that evoked a brisk withdrawal response” value is, setting by setting: under setting [1], 3.50 g; under setting [2], 2.08 g.

For the compound `Cc1ccc2c(c1)c1c3n2CCN[C@@H]3CCC1` [(R)-pirlindole], the “mean lowest force that evoked a brisk withdrawal response” value by setting is: under setting [1], 3.08 g; under setting [2], 1.39 g.

Turning to `Cc1ccc2c(c1)c1c3n2CCN[C@H]3CCC1` [(S)-pirlindole], the “mean lowest force that evoked a brisk withdrawal response” value is, setting by setting: under setting [1], 4.51 g; under setting [2], 7.43 g.
